Test results reported in patent publication US20230127839A1, “COMPOUNDS AND COMPOSITIONS FOR TREATING CONDITIONS ASSOCIATED WITH STING ACTIVITY” (IFM Due, Inc., priority 2019, published 2023).

Each compound was assayed against T1, hSTING (Homo sapiens, UniProt Q86WV6, G230A/H232R/R293Q/R71H) (assay: STING reporter assay (luciferase) in THP1-Dual KO-IFNAR2 cells stimulated with 2'3'cGAMP). Conditions: 2'3'cGAMP 15 μM, 24 h, luciferase reporter activity.
T1 construct: host or cells: THP1-Dual KO-IFNAR2 cells
Format: cell-based
Outline: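 THP1-Dual KO-IFNAR2 cells (2×10E6 cells/mL) exposed to compounds at 0.0017-100 μM final, then stimulated with 2′3′cGAMP (15 μM final) delivered by Lipofectamine 2000 transfection. After 24 h at 37° C, secreted luciferase in supernatant read by QUANTI-Luc luminescence; EC50 calculated.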

T1 sequence (Q86WV6 whole entry R71H/G230A/H232R/R293Q): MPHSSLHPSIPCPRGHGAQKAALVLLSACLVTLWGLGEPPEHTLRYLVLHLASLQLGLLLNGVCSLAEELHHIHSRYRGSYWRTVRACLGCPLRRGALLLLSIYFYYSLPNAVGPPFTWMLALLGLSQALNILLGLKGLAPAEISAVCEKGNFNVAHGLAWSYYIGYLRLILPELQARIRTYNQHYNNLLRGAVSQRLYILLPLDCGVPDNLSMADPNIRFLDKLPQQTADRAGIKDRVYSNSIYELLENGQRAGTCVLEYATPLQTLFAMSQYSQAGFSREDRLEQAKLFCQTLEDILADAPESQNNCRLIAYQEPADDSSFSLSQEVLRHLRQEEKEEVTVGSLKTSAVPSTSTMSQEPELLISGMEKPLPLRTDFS

Q: For C[C@@H]1CN(c2ncc(NC(=O)Nc3c[nH]c4ccc(Cl)cc34)cc2Cl)CCN1C(=O)OC(C)(C)C [Compound 284, tert-butyl(R)-4-(3-chloro-5-(3-(5-chloro-1H-indol-3-yl)ureido)pyridin-2-yl)-2-methylpiperazine-1-carboxylate], which EC50 is on record?
A: 0.04 to 0.2 µM

Q: Which EC50 does the source give for O=C(Nc1cnc(N2CC3CCC(C2)O3)c(Cl)c1)Nc1c[nH]c2ccc(Cl)cc12 [Compound 285, 1-(6-(8-oxa-3-azabicyclo[3.2.1]octan-3-yl)-5-chloropyridin-3-yl)-3-(5-chloro-1H-indol-3-yl)urea] here?
A: 0.04 to 0.2 µM

Q: Which EC50 does the source give for C[C@H]1CN(c2ncc(NC(=O)Nc3c[nH]c4ccc(Cl)cc34)cc2Cl)C[C@H](C)O1 [Compound 286, 1-(5-chloro-1H-indol-3-yl)-3-(5-chloro-6-((2S,6S)-2,6-dimethylmorpholino)pyridin-3-yl)urea] here?
A: 0.04 to 0.2 µM

Q: How did the EC50 turn out when O=C(Nc1cc(Cl)c(C2CCC(F)(F)CC2)cn1)Nc1c[nH]c2ccc(F)cc12 [Compound 287, 1-(4-chloro-5-(4,4-difluorocyclohexyl)pyridin-2-yl)-3-(5-fluoro-1H-indol-3-yl)urea] was run?
A: 0.04 to 0.2 µM

Q: How did the EC50 turn out when C[C@@H]1CN(c2ncc(NC(=O)Nc3c[nH]c4ccc(Cl)cc34)cc2Cl)C[C@H](C)N1 [Compound 288, 1-(5-chloro-1H-indol-3-yl)-3-(5-chloro-6-(cis-3,5-dimethylpiperazin-1-yl)pyridin-3-yl)urea] was run?
A: 5 to 100 µM

Q: With C[C@H]1CN(c2ncc(NC(=O)Nc3c[nH]c4ccc(Cl)cc34)cc2Cl)C[C@H](C)N1 [Compound 289, 1-(5-chloro-1H-indol-3-yl)-3-(5-chloro-6-((3S,5S)-3,5-dimethylpiperazin-1-yl)pyridin-3-yl)urea] as the compound, how does the EC50 read?
A: 5 to 100 µM

Q: With CC1(C)CN(c2ncc(NC(=O)Nc3c[nH]c4cc(F)c(F)cc34)cc2F)CCO1 [Compound 290, 1-(5,6-difluoro-1H-indol-3-yl)-3-(6-(2,2-dimethylmorpholino)-5-fluoropyridin-3-yl)urea] as the compound, how does the EC50 read?
A: 0.04 to 0.2 µM

Q: C[C@@H]1CN(c2ncc(NC(=O)Nc3c[nH]c4ccc(Cl)cc34)cc2Cl)C[C@@H](C)N1 [Compound 291, 1-(5-chloro-1H-indol-3-yl)-3-(5-chloro-6-((3R,5R)-3,5-dimethylpiperazin-1-yl)pyridin-3-yl)urea] was tested. Which EC50 did it give?
A: 1 to 5 µM

Q: Which EC50 does the source give for O=C(Nc1cnc(N2CCC(F)(F)CC2)c(F)c1)Nc1c[nH]c2ccc(Cl)cc12 [Compound 292, 1-(5-chloro-1H-indol-3-yl)-3-(6-(4,4-difluoropiperidin-1-yl)-5-fluoropyridin-3-yl)urea] here?
A: 0.04 to 0.2 µM

Q: With C[C@@H]1CN(c2ncc(NC(=O)Nc3c[nH]c4ccc(Cl)cc34)cc2Cl)C[C@H](C)O1 [Compound 293, 1-(5-chloro-1H-indol-3-yl)-3-(5-chloro-6-((2S,6R)-2,6-dimethylmorpholino)pyridin-3-yl)urea] as the compound, how does the EC50 read?
A: 0.04 to 0.2 µM

Q: For CC1(C)OCC(c2ncc(NC(=O)Nc3c[nH]c4ccc(Cl)cc34)cc2Br)CO1 [Compound 294, 1-(5-bromo-6-(2,2-dimethyl-1,3-dioxan-5-yl)pyridin-3-yl)-3-(5-chloro-1H-indol-3-yl)urea], which EC50 is on record?
A: 0.04 to 0.2 µM

Q: How did the EC50 turn out when O=C(Nc1cnc(C2CCC(F)(F)CC2)c(F)c1)Nc1c[nH]c2ccc(Cl)cc12 [Compound 295, 1-(5-chloro-1H-indol-3-yl)-3-(6-(4,4-difluorocyclohexyl)-5-fluoropyridin-3-yl)urea] was run?
A: 0.04 to 0.2 µM

Q: How did the EC50 turn out when C[C@H]1CN(c2ncc(NC(=O)Nc3c[nH]c4ccc(Cl)cc34)cc2Cl)CCN1 [Compound 296, (S)-1-(5-chloro-1H-indol-3-yl)-3-(5-chloro-6-(3-methylpiperazin-1-yl)pyridin-3-yl)urea] was run?
A: 1 to 5 µM

Q: Which EC50 does the source give for O=C(Nc1cnc(C2CCN(CC(F)(F)F)CC2)c(Cl)c1)Nc1c[nH]c2ccc(Cl)cc12 [Compound 297, 1-(5-chloro-1H-indol-3-yl)-3-(5-chloro-6-(1-(2,2,2-trifluoroethyl)piperidin-4-yl)pyridin-3-yl)urea] here?
A: 0.04 to 0.2 µM

Q: Which EC50 does the source give for CC1(C)CN(c2ncc(NC(=O)Nc3c[nH]c4ccc(Cl)cc34)cc2Cl)CCO1 [Compound 298, 1-(5-chloro-1H-indol-3-yl)-3-(5-chloro-6-(2,2-dimethylmorpholino)pyridin-3-yl)urea] here?
A: 0.04 to 0.2 µM

Q: O=C(Nc1ccc(C2CCC2)cc1)Nc1c[nH]c2ccc(Cl)cc12 [Compound 300, 1-(5-chloro-1H-indol-3-yl)-3-(4-cyclobutylphenyl)urea] was tested. Which EC50 did it give?
A: 0.04 to 0.2 µM
